Assay results as given in a melting point compilation (Tetko et al.; mined from patent text by program, amines drawn as free bases though some values may be those of a salt).

Compound	melting point [°C]
ON=CNc1ccc(N2CCOCC2)nc1	172 to 174
CS(=O)(=O)c1ccc(-c2oc(C(=O)O)cc(=O)c2-c2ccc(Cl)cc2)cc1	236
CCCc1nc2cc(C)c(NC(=O)c3cc(C(F)(F)F)nn3-c3ncccc3Cl)c(C(=O)NC(C)C)c2cc1CC	213 to 220
Cc1c(NC(=O)c2ccc(-c3ccc(F)cc3)cc2)ccc2cc(CN(C)C)cnc12	161 to 163
Cc1cc(-c2[nH]c3c([N+](=O)[O-])cccc3c2C)cc(C)c1O	178 to 179
O=[N+]([O-])c1cnn2c(-c3ccncc3)ccnc12	241 to 244
O=S(=O)(c1nc[nH]n1)C(F)(F)Br	176 to 177
Nc1cnc(-c2ccncc2)c(-c2cccc(F)c2)n1	221 to 222
CCC1(CC)C(=O)N(CCO)CC(C)(C)N1OC(C)(C)C#N	80 to 82
CCc1cccc(N2C(=S)SCC2(O)CC)n1 (configuration not stated)	84
CC(C)(C(=O)NO)N(CCC(=O)O)S(=O)(=O)c1ccc(Oc2ccc(F)cc2)cc1	162
CCOC(=O)C1=C(C)NC(N)=C(C(=O)OCC)C1Cc1cccs1 (configuration not stated)	170
CC(C)(C)OC(=O)CNC(=O)C(=O)c1cn(Cc2ccccc2)c2ccc(-c3ccc(OC(F)(F)F)cc3)cc12	167 to 168
O=C(CCl)Cc1ccc(Cl)cc1	40.5 to 45.5
CCOC(=O)C1=C(C)Nc2ccnn2C1c1ccccc1C(F)(F)F (configuration not stated)	182 to 183
CCCc1c(OCCCOc2cccc(C(=O)O)c2)ccc(C(C)=O)c1O	142 to 143
c1cncc(-c2cncnc2)c1	101 to 103
CCCCCCCCCCOc1ccc(OCc2ccccc2)c(C(=O)O)c1	63 to 65
Nc1[nH]nc(-c2ccncc2)c1-c1ccc(F)cc1	116 to 118
Cc1ccc(F)cc1-n1c(CF)nc2ccc(N)cc2c1=O	174 to 176

Compound	melting point [°C]
Nc1c(-c2cc(Cl)ccc2O)c2c(C(F)(F)F)cccc2[nH]c1=O	267 to 268
Cc1cc(-c2ccc(Cl)c(Cl)c2)nc(-n2cnc(-c3ccc(S(N)(=O)=O)cc3)c2)n1	282
COCc1noc(-c2ncn3c2[C@@H]2CCCN2C(=O)c2c(Cl)cccc2-3)n1	168 to 170
NC(=S)N(c1ccsc1-c1nc(C2CC2)no1)C1CN2CCC1CC2 (configuration not stated)	155 to 157
CCOC(=O)CSC1=CC(=NS(=O)(=O)c2cccs2)c2ccccc2C1=O	110 to 112
COC(=O)CCCC#Cc1cc(Cl)ccc1NS(=O)(=O)c1ccc2c(c1)OCCN2C	131 to 133
CCOC(=O)Cn1cnc(-c2cc(OC)c(OC)c(OC)c2)c1-c1ccc(C(F)(F)F)cc1	129 to 134
CCc1cc(OCc2ccc(-c3ccccc3-c3nnnn3-c3ccc(C#N)cc3)cc2)c2ccccc2n1	165 to 166
O[C@H]1CC[C@H](Nc2nccc(-n3nnc4ccccc43)n2)CC1	225 to 228
CN1CCN(C(=O)c2cc(N)cc(C(F)(F)F)c2)CC1	114 to 115
COC(=O)Cc1ccc(OCc2ccc3ccccc3n2)c(Cl)c1	79
NCCNC(=O)CN1CCC(O)C1=O (configuration not stated)	110 to 112
O=C(O)c1cc(=O)cc(-c2ccccc2O)o1	213 to 215
COc1ccc(C2CC(=O)N(C)C2)cc1OC (configuration not stated)	69
CC(C)(C)N=NC(C)(C#N)COC(=O)c1ccccc1 (configuration not stated)	57 to 59
COC(=O)CC[C@H](NC(=O)c1ccc(C#Cn2cnc3nc(C)c(OC(=O)C(C)(C)C)c-3c2O)cc1)C(=O)OC	163
CCCCc1ncc(/C=C(\Cc2cccs2)C(=O)O)n1Cc1ccc(C(=O)O)cn1	212 to 213
CCOc1c(Nc2cc(C(F)(F)F)ccc2OC)c(=O)c1=O	143 to 155
CC1=NN=C(c2ccc(NC(=O)CN(C)C)cc2)c2cc3c(cc2C1)OCO3	211 to 213
CC(C)(F)Cn1c(CCO)nc2c(N)nc3cccnc3c21	224 to 225

Next, values leading:

melting point [°C]	Compound
200 to 202	O=C(O)c1c(-c2cccc(OCC3CC3)c2)c2ccccc2n1Cc1ccc(F)cc1
219 to 220	O=c1nc(-c2ccccc2)c2cc([N+](=O)[O-])ccc2n1Cc1cccs1
136 to 138	CS(=O)CCNC(=O)c1cccc(-c2ccc3c(c2)C(c2cc(Cl)ccc2Cl)CC3)c1 (configuration not stated)
110 to 111	Cc1nnc(NCCCC(C)N2CCNCC2)c2cc3ccccn3c12 (configuration not stated)
144	CCCn1nc(CC)c(C(=O)OC)c1Cc1ccc(-c2ccccc2S(N)(=O)=O)cc1
191 to 193	CSc1ncnc2c1ncn2COC(COC(C)=O)COC(C)=O
140	CC(C)CC(NC(c1ccc(-c2ccc(S(C)(=O)=O)cc2)cc1)C(F)(F)F)C(=O)NCC#N (configuration not stated)
117 to 119	CC1(C)Cc2cc(OCC(N)=O)c3c(c2C(c2ccccc2)=N1)CC(C)(C)O3
47 to 48	COc1ccccc1NC(=O)C(C)(C)CCCOc1cc(C)ccc1C
195 to 197	CS(=O)(=O)c1ccc(/C(=C\C2CCCCC2)C(=O)O)cc1
69 to 70	O=C(Cc1ccc(Br)cc1)c1ccc(Cl)cc1Cl
59.2 to 61.2	Cc1ncsc1CNc1ccc(-n2nc(C(F)(F)F)cc2C2CC2)cc1
109 to 110	CCC1(CCCCN2CCN(c3ccc(OC)cc3)CC2)C(=O)Nc2ccccc21 (configuration not stated)
228	O=C(Nc1c(Cl)cncc1Cl)c1ccc(OC(F)F)c2oc3ccc(C(F)(F)F)cc3c12
120	O=c1cc(OCc2ccccc2)c2ccc(OCCc3ccc(F)cc3)cc2o1
109 to 111	CCC(C(=O)OCC[Si](C)(C)C)c1ccccc1CCC(=O)c1cccc(C=Cc2ccc3ccc(Cl)cc3n2)c1 (configuration not stated)
176 to 177	O=S(=O)(N[C@H](Cc1ccc(C(F)(F)F)cc1)[C@@H](O)c1ccc(F)cc1)c1cccc2ccccc12 (racemic)
227 to 229	CN(Cc1ccc(NC(=O)C2=Cc3cc(-c4ccc(OC5CCOCC5)cc4)ccc3S(=O)(=O)CC2)cc1)C1CCOCC1
243 to 245	COc1ccc(NC(=O)N(C)Cc2cccc3c2C(=O)N(C2CCC(=O)NC2=O)C3=O)cc1 (configuration not stated)

melting point [°C]	Compound
197 to 199	COc1cc(Nc2c(C#N)cnc3sccc23)c(Cl)cc1Cl
263 to 264	Cc1[nH]c2ncnc(N3CCCc4ccccc43)c2c1C
173 to 175	Nc1ncc2ncn(CCO)c2n1
105 to 107	CCNC(=O)c1c(Cl)cccc1[Si](C)(C)C
113 to 115	COc1ccc2c(c1)CCC1C2CCC2(C)C(=O)CC(C)(C(C)C)C12 (configuration not stated)
128 to 130	CN(N)c1cnn(-c2ccccc2)c(=O)c1Cl
> 230	NS(=O)(=O)c1ccc(NN=C2C(=O)Nc3ccc(C(=O)NCCO)cc32)cc1
158 to 160	CCCOCc1nc2nccnc2c(=O)[nH]1
140 to 141	CCC(C)(C)c1ccc(OCCCNC(=O)c2cc(OS(=O)(=O)CCCOc3ccc([N+](=O)[O-])cc3)c3ccccc3c2O)c(C(C)(C)CC)c1
65 to 66	COC(=O)c1cc([N+](=O)[O-])nn1C
88 to 92	O=[N+]([O-])c1ccc(C2OCCO2)cc1
122 to 125	Cc1ccc(-c2nnc(N3CCCC(O)C3)nc2-c2ccc(C)cc2)cc1 (configuration not stated)
200 to 201	CCCOc1cc(C)c(C=CC(C)=CC=CC(C)=CC(=O)OCC)c(C)c1C
56 to 58	Cc1oc2c(C=O)cccc2c1C
81 to 82	COc1cccc(Cc2ccc(N)c(C#N)c2)c1
119 to 125	CC(C)CNC(=O)C(O)C(CC1CCCCC1)NC(=O)C(Cc1c[nH]cn1)NC(=O)C(CC(=O)N1CCOCC1)Cc1cccc2ccccc12 (mixture of isomers)
157	O=C(C=Cc1ccncc1)c1ccc(F)cc1
86 to 88	CCOC(=O)c1cc2c(OC)cc3c(c2n1Cc1ccccc1)CCCC3
258 to 260	N#CC(C(=O)Nc1ccccn1)C(=O)c1nn(-c2ccccc2)c2c1CSc1ccccc1-2 (configuration not stated)

melting point [°C]	Compound
186 to 187	O=C1Nc2cccc(I)c2C(=O)N2CC[C@@H]12
65 to 67	CCCCCn1nc(-c2ccc(F)cc2)c(-c2ccc(S(C)(=O)=O)cc2)cc1=O
189 to 191	O=S1(=O)N=CN(C2CCCCC2)c2cc(Cl)ccc21
186 to 187	O=C(NCC1COCCO1)C1CCCN(c2cccc3c2C(=O)N(Cc2ccncc2)C3=O)C1 (configuration not stated)
164 to 167	CNC(=O)c1cccc(Oc2ncccc2C(=O)NCc2ccccc2)c1
169 to 172	CCCCc1oc2ccccc2c1C(=O)NCc1ccc2c(-c3ccc(Cl)cc3)c(OC(Cc3ccccc3)C(=O)O)ccc2c1 (configuration not stated)
123 to 124	NC(=O)OCC(O)COc1noc2ccc(Cl)cc12 (configuration not stated)
136 to 137	CCC(Cc1ccc(OC)c(CC(=O)Nc2ccc(C(F)(F)F)cc2)c1)C(=O)O (configuration not stated)
87 to 88	COc1ccc(CN2CCCc3cc(OCc4ccccc4)c(OC)cc3C2)cc1
205 to 208	CCOC(=O)c1cc(-n2c(=O)[nH]c3c(c2=O)CCC3)ccc1[N+](=O)[O-]
230	COC(=O)c1ccc2c(c1)c1cc(-c3ccc(C=O)cc3)c(=O)n(C)c1n2C
192	Nc1cc(O)c(C(=O)O)cc1Cl
298 to 301	Cc1cn(-c2nc(Nc3cccc(NS(C)(=O)=O)c3)nc3[nH]cnc23)cn1
104	CCOC(=O)c1cc(OC(C)=O)c2cc(OC)ccc2c1
91 to 115	CCn1cc(C2(c3cccc(-c4cccnc4F)c3)N=C(N)N3CCCN=C32)cn1 (configuration not stated)
150	CSc1ccc(NC(=O)N(O)C(C)C)cc1
188 to 190	CCC(Oc1ccc(C(C)(C)CC)cc1C(C)(C)CC)C(=O)Nc1cc(OC(C)=O)c(C)c(Cl)c1O (configuration not stated)
137	COc1cccc(N(CC(=O)N(C)c2ccccc2)C(=O)CN2C(=O)c3ccccc3C2=O)c1
226 to 227	CC(c1oc2ccccc2c(=O)c1-c1ccccc1)n1ncc2c(N)ncnc21 (configuration not stated)
